Reference: EPA's ToxRefDB 2

Experiments:
mouse [1] = settings: Combined chronic toxicity/carcinogenicity, b6c3f1, Oral, Gavage/Intubation, dose end: 105 week, group: systemic
mouse [2] = settings: Subchronic oral toxicity in rodents, b6c3f1, Gavage/Intubation, dose end: 14 week, group: systemic
rat [3] = settings: Prenatal developmental toxicity study, wistar, Oral, Gavage/Intubation, dose end: 10 GD
rabbit = settings: Prenatal developmental toxicity study, new zealand white, Oral, Gavage/Intubation, dose end: 19 GD
rat [4] = settings: Prenatal developmental toxicity study, fischer, Oral, Gavage/Intubation, dose end: 10 GD
rat [5] = settings: Prenatal developmental toxicity study, sprague dawley, Oral, Gavage/Intubation, dose end: 17 GD
rat [6] = settings: Acute oral toxicity, wistar, Gavage/Intubation, dose end: 7 day, group: systemic, systemic / clinical chemistry / calcium / calcium + systemic / urinalysis / calcium / calcium
rat [7] = settings: Prenatal developmental toxicity study, sprague dawley, Oral, Gavage/Intubation, dose end: 20 GD
mouse [8] = settings: Subchronic oral toxicity in rodents, other, Gavage/Intubation, dose end: 13 week, group: systemic, systemic / clinical chemistry / alanine aminotransferase (alt/sgpt) / alanine aminotransferase (alt/sgpt) + systemic / clinical chemistry / …
[9] = systemic / pathology microscopic / ovary / atrophy + systemic / pathology microscopic / ovary / cyst + systemic / pathology microscopic / …
[10] = systemic / pathology microscopic / ovary / cyst + systemic / pathology microscopic / harderian gland / adenoma
[11] = systemic / hematology / erythrocyte (rbc) count differential / erythrocyte (rbc) + systemic / hematology / hematocrit (hct) / hematocrit (…
[12] = systemic / hematology / hemoglobin (hgb) / hemoglobin (hgb)
[13] = group: developmental, developmental / developmental malformation / bone / [other] + developmental / developmental malformation / bone / incomplete ossification + …
[14] = group: maternal, reproductive / reproductive performance / resorptions / resorptions + reproductive / offspring survival early / dead fetuses / dead fetuses
[15] = group: developmental, systemic / in life observation / body weight / fetal weight
[16] = group: maternal, reproductive / reproductive performance / aborted / aborted + systemic / in life observation / body weight / body weight + systemic / in …
[17] = group: developmental, developmental / developmental malformation / bone / [other] + developmental / developmental malformation / general / crown-rump length + …
[18] = group: maternal, reproductive / reproductive performance / resorptions / resorptions + reproductive / offspring survival early / dead fetuses / dead fetuses…
[19] = group: developmental, developmental / developmental malformation / bone / [other] + developmental / developmental malformation / bone / kinked + developmental / …
[20] = group: developmental, developmental / developmental malformation / heart / [other] + developmental / developmental malformation / ureter / convoluted
[21] = group: maternal, reproductive / reproductive performance / postimplantation loss / postimplantation loss + reproductive / reproductive performance / …
[22] = group: maternal, systemic / organ weight / uterus / nos + reproductive / offspring survival early / live fetuses / live fetuses
[23] = group: developmental, developmental / developmental malformation / bone / [other] + developmental / developmental malformation / bone / fused + developmental / …
[24] = group: maternal, reproductive / reproductive performance / postimplantation loss / postimplantation loss + systemic / in life observation / body weight / …
[25] = group: maternal, systemic / in life observation / body weight / body weight gain

## C=CC#N [Acrylonitrile]
Mouse [1]; [9]
  LOAEL: 10 mg/kg/day
  NOAEL: 2.5 mg/kg/day
Mouse [1]; [10]
  LEL: 2.5 mg/kg/day
  NEL: < 2.5 mg/kg/day
Mouse [2]; [11]
  LOAEL: > 60 mg/kg/day
  NOAEL: ≥ 60 mg/kg/day
Mouse [2]; [12]
  LEL: 5 mg/kg/day
  NEL: < 5 mg/kg/day

## CC(=O)Oc1ccccc1C(=O)O [Aspirin]
Rat [3]; [13]
  LEL: 500 mg/kg/day
  LOAEL: > 500 mg/kg/day
  NEL: < 500 mg/kg/day
  NOAEL: ≥ 500 mg/kg/day
Rat [3]; [14]
  LEL: 500 mg/kg/day
  LOAEL: > 500 mg/kg/day
  NEL: < 500 mg/kg/day
  NOAEL: ≥ 500 mg/kg/day
rabbit; [15]
  LEL: 350 mg/kg/day
  LOAEL: > 350 mg/kg/day
  NEL: 250 mg/kg/day
  NOAEL: ≥ 350 mg/kg/day
rabbit; [16]
  LOAEL: > 350 mg/kg/day
  NEL: 125 mg/kg/day
  NOAEL: ≥ 350 mg/kg/day
rabbit; group: maternal, systemic / in life observation / body weight / body weight gain + systemic / in life observation / clinical signs / defecation (diarrhea) + …
  LEL: 250 mg/kg/day
Rat [4]; [17]
  LEL: 500 mg/kg/day
  LOAEL: > 625 mg/kg/day
  NEL: < 500 mg/kg/day
  NOAEL: ≥ 625 mg/kg/day
Rat [4]; group: maternal, reproductive / reproductive performance / resorptions / resorptions
  NEL: 500 mg/kg/day
Rat [4]; [18]
  LEL: 625 mg/kg/day
  LOAEL: > 625 mg/kg/day
  NOAEL: ≥ 625 mg/kg/day
Rat [5]; [19]
  LOAEL: > 1000 mg/kg/day
  NOAEL: ≥ 1000 mg/kg/day
Rat [5]; [20]
  LEL: 50 mg/kg/day
  NEL: < 50 mg/kg/day
Rat [5]; [21]
  LOAEL: > 1000 mg/kg/day
  NOAEL: ≥ 1000 mg/kg/day
Rat [5]; [22]
  LEL: 50 mg/kg/day
  NEL: < 50 mg/kg/day
Rat [6]
  LEL: 100 mg/kg/day
  LOAEL: > 100 mg/kg/day
  NEL: < 100 mg/kg/day
  NOAEL: ≥ 100 mg/kg/day

## CC[C@H](C)C(=O)O[C@H]1C[C@@H](C)C=C2C=C[C@H](C)[C@H](CC[C@@H]3C[C@@H](O)CC(=O)O3)[C@H]21 [Lovastatin]
Rat [7]; [23]
  LOAEL: > 800 mg/kg/day
  NOAEL: ≥ 800 mg/kg/day
Rat [7]; [15]
  LEL: 100 mg/kg/day
  NEL: < 100 mg/kg/day
Rat [7]; [24]
  LOAEL: > 800 mg/kg/day
  NOAEL: ≥ 800 mg/kg/day
Rat [7]; [25]
  LEL: 100 mg/kg/day
  NEL: < 100 mg/kg/day
Mouse [8]
  LEL: 30 mg/kg/day
  LOAEL: > 30 mg/kg/day
  NEL: < 30 mg/kg/day
  NOAEL: ≥ 30 mg/kg/day
